Measured values from patent US20130189262A1, “IL-27 Antagonists for Treating Inflammatory Diseases” (Five Prime Therapeutics, Inc., priority 2011, published 2013).

Tests used:
[1] = test system: primary bronchial smooth muscle cells (BSMCs); test: WSX-1 expression in bronchial smooth muscle cells treated with factors (quantitative RT-PCR); format: cell-based, human; details: 5 ng/ml TNF-α; FIG. 7
Protocol: The effect of various factors on WSX-1 expression was then determined in primary bronchial smooth muscle cells (BSMCs). The BSMCs were treated with 5 ng/ml TNF-α, 10 ng/ml IFN-γ, 5 ng/ml TNF-α and 10 ng/ml IFN-γ, or 5 ng/ml TNF-α and 10 ng/ml IFN-γ and 25 nM fluticasone. WSX-1 expression was determined by quantitative RT-PCR and normalized to RPL19.

[2] = test system: primary human bronchial smooth muscle cells; test: CXCL10 expression with combinations of TNF-α, IL-27 and fluticasone (bDNA assay); format: cell-based; details: for CXCL10 expression, factor alone: single factor alone (5 ng/ml TNF-α; 1 μg/ml linked IL-27; IFN-γ), FIG. 4
Protocol: Primary human bronchial smooth muscle cells were cultured in the presence of 5 ng/ml TNF-αalone, 5 ng/ml TNF-α and 25 nM fluticasone; 1 μg/ml linked IL-27; 5 ng/ml TNF-α and 30 ng/ml IL-27; or 5 ng/ml TNF-α, 25 nM fluticasone, and 30 ng/ml IL-27. CXCL10 expression was determined by bDNA assay.

[3] = test system: primary human bronchial smooth muscle cells; test: CXCL10 expression with TNF-α, fluticasone and IL-12 family cytokine supernatants (bDNA assay); format: cell-based; details: 5 ng/ml TNF-α, 25 nM fluticasone, 293T supernatant; FIG. 5
Protocol: Primary human bronchial smooth muscle cells were cultured in the presence of 5 ng/ml TNF-α, 25 nM fluticasone, and a supernatant from 293T cells expressing IL-27 subunit EBI3 alone, IL-27 subunit p28 alone, IL-12 (comprised of p35 and p40), IL-35 (comprised of p35 and EBI3), IL-23 (comprised of p19 and p40), or IL-27 (comprised of p28 and EBI3). CXCL10 expression was determined by bDNA assay.

[4] = test system: primary human bronchial epithelial cells; test: CXCL9 (MIG) / CXCL10 induction in air-liquid interface bronchial epithelial cells (ELISA); format: cell-based; details: normal donor; with and without 25 nM fluticasone; FIG. 9
[5] = test system: primary human bronchial smooth muscle cells; test: Screen for factors inducing steroid resistance: CXCL10 and CD38 expression (bDNA) in bronchial smooth muscle cells with TNF-α and fluticasone; format: cell-based; details: 5 ng/ml TNF-α, 25 nM fluticasone
Protocol: In order to identify factors that induce a steroid-resistant state, an assay was set up as follows. Primary human bronchial smooth muscle cells were cultured in the presence of 5 ng/ml TNF-α and 25 nM fluticasone and a test substance. Steroid sensitivity was determined by detecting expression levels of CXCL10 (IP-10) and CD38 using a bDNA assay (QuantiGene® Plex 2.0; Panomics, Santa Clara, Calif.). Expression of each of those genes is suppressed by steroids, such as fluticasone. If a factor induces a steroid-insensitive state, expression of those genes should increase. Interferon family proteins were included as test substances as positive controls.
Using this assay, a library of over 4000 secreted and extracellular domain protein test substances were screened to identify test substances that induce a steroid-resistant state. The test substances were individually expressed in 293T cells and the cell supernatants used to test each substance in the assay.

[6] = test system: primary human bronchial smooth muscle cells; test: Dose dependence of IL-27-induced steroid insensitivity (CXCL10/CD38 bDNA assay); format: cell-based; details: 5 ng/ml TNF-α, 25 nM fluticasone
Protocol: Primary human bronchial smooth muscle cells were cultured in the presence of 5 ng/ml TNF-α, 25 nM fluticasone, and increasing concentrations of linked IL-27 (Cat. No. 2526-IL; R&D Systems, Minneapolis, Minn.). CXCL10 and CD38 expression levels were determined by bDNA assay.

[7] = target: T1, human IL-27 (Homo sapiens, UniProt Q14213+Q8NEV9); test: Inhibition of IL-27-induced CXCL10 expression in bronchial smooth muscle cells (ELISA); format: cell-based; details: 0.2 to 20 μg/mL preincubated with 5 ng/mL linked or native human IL-27 and 5 ng/mL TNF-α; FIG. 11
T1 construct: made in house
T1 sequence (Q8NEV9 29-243): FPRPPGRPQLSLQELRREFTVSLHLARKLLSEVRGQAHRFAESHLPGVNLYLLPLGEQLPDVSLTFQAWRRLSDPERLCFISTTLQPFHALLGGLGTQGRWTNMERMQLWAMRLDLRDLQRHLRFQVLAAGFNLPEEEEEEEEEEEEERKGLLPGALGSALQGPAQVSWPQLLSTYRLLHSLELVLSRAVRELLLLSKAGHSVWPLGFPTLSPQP
T1 sequence (Q14213 21-229): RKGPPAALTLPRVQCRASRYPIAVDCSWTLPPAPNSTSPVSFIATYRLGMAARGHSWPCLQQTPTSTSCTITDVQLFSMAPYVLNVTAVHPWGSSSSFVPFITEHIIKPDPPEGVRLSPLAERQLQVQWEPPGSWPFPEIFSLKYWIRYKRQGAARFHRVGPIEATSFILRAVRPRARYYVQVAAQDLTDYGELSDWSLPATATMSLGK
Protocol: Various concentrations of an IL-27 antagonist, WSX-1 ECD (0.2 to 20 μg/mL), were preincubated with 5 ng/mL of human IL-27 in the presence of 5 ng/mL of human TNF-α. Both linked and native human IL-27 were tested. Human linked IL-27 was obtained from R&D Systems and is produced with a linker between the p28 subunit and the EBI3 subunit. Native IL-27 was produced and purified in house by transfecting mammalian cells with separate vectors expressing each subunit and purifying the resulting p28/EBI3 (IL-27) heterodimer from the cell culture supernatant. Following the preincubation of WSX-1 ECD with IL-27 and TNF-α, the stimulus was added to primary human bronchial smooth muscle cells in culture. CXCL10 expression was determined by ELISA.
Various concentrations of a polyclonal antibody against human IL-27 (0.4 to 50 μg/mL; R&D Systems) were preincubated with 10 ng/mL of native human IL-27 in the presence of 5 ng/mL of human TNF-α. Following the preincubation of polyclonal antibody with IL-27 and TNF-α, the stimulus was added to primary human bronchial smooth muscle cells in culture. CXCL10 expression was determined by ELISA.

With TNF-α the “WSX-1 expression normalized to RPL19” value [1] was “up-regulated” and the “CXCL10 expression, factor alone” value [2] was “increased expression of CXCL10”.

For “IL-27: heterodimeric cytokine comprising the subunits p28 and EBI3; linked IL-27 from R&D Systems (Cat. No. 2526-IL)”, the “synergistic increase of CXCL10 expression in the presence of TNF-α and fluticasone” value [3] was “synergistically increased CXCL10 expression”, the “steroid sensitivity of IL-27 induction of CXCL10 expression” value [4] was “steroid-insensitive at all concentrations of IL-27” and the “fold-change in CXCL10 expression (screen)” value ([5]; 293T supernatant of test substance, FIG. 1) was “positive data points”. For the same molecule, the “effect on CD38 expression (two retests)” value ([5]; FIG. 2) was “positive data points”, the “CXCL10 expression, in combination with TNF-α” value ([2]; 5 ng/ml TNF-α and 30 ng/ml IL-27) was “very high CXCL10 expression” and the “CXCL10 expression, factor alone” value [2] was “did not affect expression of CXCL10”. The “steroid insensitivity (CXCL10 expression in the presence of fluticasone)” value ([6]; increasing concentrations of linked IL-27) was “induced steroid-insensitivity in a dose-dependent manner”, the “expression of CD38” value ([6]; increasing concentrations of linked IL-27, data not shown) was “increased with increasing concentration” and the EC50 ([6]; linked IL-27, FIG. 3, read-out: EC50 for CXCL10 expression in the presence of fluticasone) was 0.372 nM.

With “IFN-γ: interferon family protein, positive control in the screen” the “CXCL10 expression, factor alone” value [2] was “did not induce CXCL10 expression”.

`C[C@@H]1C[C@H]2[C@@H]3C[C@H](F)C4=CC(=O)C=C[C@]4(C)[C@@]3(F)[C@@H](O)C[C@]2(C)[C@@]1(O)C(=O)SCF` [fluticasone, reference compound] was tested, and the “effect on CXCL10 expression induced by IL-27 and TNF-α” value ([2]; 5 ng/ml TNF-α, 25 nM fluticasone, 30 ng/ml IL-27) was “no effect”.

B1: WSX-1 ECD: IL-27 antagonist; WSX-1 polypeptide that lacks the intracellular and transmembrane domains (protein, UniProt Q6UWB1 33-516, looked up)
extracellular domain: QGSAGPLQCYGVGPLGDLNCSWEPLGDLGAPSELHLQSQKYRSNKTQTVAVAAGRSWVAIPREQLTMSDKLLVWGTKAGQPLWPPVFVNLETQMKPNAPRLGPDVDFSEDDPLEATVHWAPPTWPSHKVLICQFHYRRCQEAAWTLLEPELKTIPLTPVEIQDLELATGYKVYGRCRMEKEEDLWGEWSPILSFQTPPSAPKDVWVSGNLCGTPGGEEPLLLWKAPGPCVQVSYKVWFWVGGRELSPEGITCCCSLIPSGAEWARVSAVNATSWEPLTNLSLVCLDSASAPRSVAVSSIAGSTELLVTWQPGPGEPLEHVVDWARDGDPLEKLNWVRLPPGNLSALLPGNFTVGVPYRITVTAVSASGLASASSVWGFREELAPLVGPTLWRLQDAPPGTPAIAWGEVPRHQLRGHLTHYTLCAQSGTSPSVCMNVSGNTQSVTLPDLPWGPCELWVTASTIAGQGPPGPILRLHLPDNTLRWK
modifications: extracellular domain
notes: IL-27 antagonist; WSX-1 polypeptide that lacks the intracellular and transmembrane domains
For B1, the “inhibition of IL-27-induced expression of CXCL10” value [7] was “inhibited IL-27-induced expression of CXCL10”.
